Several values for one entry are separate records, joined by “and”; a condition that tells them apart may be missing. Equal values may be shown once.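 Protocol summary: plate cells (96-well), add compound at 5 concentrations, incubate 48 h, interpolate endpoints linearly. GI50 = concentration required for 50% inhibition of growth. TGI denotes the concentration required for complete inhibition of growth.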
Key:
Assay in all cases: NCI tumour cell line growth inhibition, 48 h
[1] = system: SF-539 CNS
[2] = system: A498 renal
[3] = system: UACC-257 melanoma
[4] = system: CCRF-CEM leukemia
[5] = system: SF-295 CNS
[6] = system: SF-268 CNS
[7] = system: KM12 colon
[8] = system: HCT-116 colon
[9] = system: OVCAR-3 ovarian
[10] = system: CAKI-1 renal

Compound	TGI [1] [µM]	TGI [2]	TGI [3] [µM]	TGI [4] [µM]	TGI [5] [µM]	TGI [6] [µM]	TGI [7] [µM]	TGI [8] [µM]	TGI [9] [µM]	TGI [10] [µM]	GI50 [1] [nM]	GI50 [3] [µM]	GI50 [4] [nM]	GI50 [10] [µM]	GI50 [6] [nM]	GI50 [7] [nM]	GI50 [8] [µM]	GI50 [2] [nM]	GI50 [5] [nM]	GI50 [9] [µM]
CC(=O)NC(CCCN(Cc1ccccc1)C(=O)N(CCCl)N=O)C(=O)NCc1ccccc1 (centres undefined)	20.6	> 72 µM	> 100	> 100	> 100	> 100	> 100	> 100	> 100	–	–	–	–	–	–	–	–	–	–	–
CCOc1ccc(NC(=O)CC2SC(N)=NC2=O)cc1 (centres undefined)	–	–	> 100	> 100	> 100	> 100	> 100	> 100	> 100	–	–	–	–	–	–	–	–	–	–	–
COc1cc(Oc2c(O)c(C)c(OC)c(C(C)=O)c2O)c(C(C)=O)c(O)c1C	> 100	–	> 100	> 100	> 100	> 100	> 100	> 100	> 100	> 100	–	–	–	–	–	–	–	–	–	–
COc1ccc2cc3n(c2c1)CCc1cc(OC)c(OC)cc1-3	> 100	> 100 µM	> 100	> 100	> 100	> 100	> 100	–	–	> 100	–	–	–	–	–	–	–	–	–	–
COc1ccc(-c2ccc(/C=N/n3c(COc4ccc(Cl)cc4)n[nH]c3=S)o2)c([N+](=O)[O-])c1	42.2	–	51.4	52	–	42.6	41.3	40.7	–	22.2	18600	15.9	17500	3.96	16600	8120	16.8	–	–	–
O=C1C(=O)N(C2C3CC4CC(C3)CC2C4)C(=O)C(=O)C1c1nc2ccccc2o1 (centres undefined)	> 100	–	> 100	–	> 100	> 100	> 100	> 100	54	> 100	–	–	–	–	–	–	–	–	–	–
CCc1c2c(nc3cccc(N)c13)-c1cc3c(c(=O)n1C2)COC(=O)[C@]3(O)CC	0.00491	0.487 µM and 0.0609 µM	–	–	–	78	–	–	–	0.0349	< 1	–	< 1	–	2.33	159	–	56.9	4.41	0.237
CC(C)[C@@H](COC(C)(C)C)N=CN1CCc2c([nH]c3ccccc23)C1	> 100	> 100 µM	–	> 100	> 100	> 100	> 100	> 100	> 100	–	–	–	–	–	–	–	–	–	–	–
C/C1=C\CC[C@@](C)(O)[C@@H]2CC3[C@@H](OC(=O)C34CC4)[C@@H](O2)[C@H](C)CCC1 (some centres undefined)	–	–	44.1	> 100	34.4	73.3	62.2	30.1	39.6	34.4	–	20.4	3950	18	19400	21600	16.5	–	17300	20.1
CS(=O)(=O)Nc1cc(-c2ccc3ncnc(Nc4ccc5c(cnn5Cc5ccc(F)cc5)c4)c3c2)cnc1Cl	5.29	3.4 µM	17.9	> 100	9.61	4.51	9.72	21.7	3.3	–	1500	2.17	822	–	819	2930	2.92	1330	2060	1.1
Nc1nc(OCc2ccccc2)nc2[nH]ncc12	47.7	26.4 µM	37.1	–	31.1	48.4	34.5	39	25.2	33.2	23300	19	–	11.1	17100	16200	19.7	11200	16900	11.5
Cn1cc(-c2ccc(CNc3cc(-c4cnc5cc(OCCCN6CCCC6)ccn45)ncn3)cc2)cn1	2.46	31.9 µM	5.5	> 100	–	4.19	3.68	2.98	4.13	3.15	1170	2.23	2720	1.65	1900	1860	1.57	16200	–	1.9
O=C1c2ccccc2C(=O)C1C(c1ccc([N+](=O)[O-])cc1)C1C(=O)c2ccccc2C1=O	> 100	–	> 100	> 100	> 100	73.6	> 100	49.3	34.1	95	–	–	–	–	–	–	–	–	–	–
N/N=C(\Cc1ccccc1)NN=C(N)N	> 100	> 100 µM	> 100	> 100	> 100	> 100	> 100	> 100	–	> 100	–	–	–	–	–	–	–	–	–	–
O=C1CCC2(c3ccccc3)Nc3cc(Cl)ccc3N12 (centres undefined)	> 100	98.7 µM	71.5	75.2	96	> 100	> 100	–	62.8	87.1	–	–	–	–	–	–	–	–	–	–
CCCCCCCCCCCCC(=O)[O-].CCCCCCCCCCCCC(=O)[O-].CCCCCCCCCCCCC(=O)[O-].CCCCCCCCCCCCC(=O)[O-].[Mo+2].[Mo+2]	29.1	–	96.1	10	27.7	45.1	29.1	27.3	24.9	–	13900	26.5	2290	–	17300	10900	8.98	–	6280	12.4
CC(=O)Oc1ccccc1C(=O)C1c2cccc(O)c2C(=O)c2c(O)cccc21	1.94	7.1 µM	3.76	2.77	2.65	5.54	1.59	3.41	–	5.39	–	–	–	–	–	–	–	–	–	–
COc1ccc2c(c1)nc(N)c1c3cccnc3cn21	1.09	3.04 µM	26.7	> 100	1.13	76.9	> 41.2	> 36.7	–	16.3	43.2	0.064	39	0.0407	91.7	47.3	0.0471	33.9	36.5	–
C/C=C(/CCCCNCCCC)[Si](C)(C)C	28.4	29.4 µM	30.3	73.4	29.2	26.2	30.6	26.6	28.3	–	–	–	–	–	–	–	–	–	–	–

Compound	TGI [1] [µM]	TGI [2]	TGI [3] [µM]	TGI [4] [µM]	TGI [5] [µM]	TGI [6] [µM]	TGI [7] [µM]	TGI [8] [µM]	TGI [9] [µM]	TGI [10] [µM]	GI50 [1] [nM]	GI50 [3] [µM]	GI50 [4] [nM]	GI50 [10] [µM]	GI50 [6] [nM]	GI50 [7] [nM]	GI50 [8] [µM]	GI50 [2] [nM]	GI50 [5] [nM]	GI50 [9] [µM]
CCCCC[C@H]1C/C=C2/C(=O)C(Cl)=C[C@@H]2C/C=C\CCCC(=O)O[C@@H](CCCCC)C/C=C2/C(=O)C(Cl)=C[C@@H]2C/C=C\CCCC(=O)O1	1.97	1.41 µM	0.932	1.76	0.861	1.68	0.92	0.523	0.555	–	518	0.366	145	–	479	388	0.186	465	362	0.268
Cc1cn2c(/C=N/N/C(N)=N\N)c(-c3ccc(Cl)c([N+](=O)[O-])c3)nc2s1	1.83	21.5 µM	4.87	–	1.8	2.37	2.29	–	1.75	17.6	993	1.41	–	8.49	1030	1020	–	7580	891	0.865
S=c1ssc(Sc2ccccn2)c1Cl	32.1	–	57.9	–	34.5	26.4	28.8	–	25.9	31.4	16000	22.2	–	17.6	13500	15500	–	–	16500	13.2
Cc1cccc(C(C)(C)C)c1NC(=O)C(=O)C(c1cnc2ccccc2n1)[N+](=O)[O-] (centres undefined)	> 100	> 100 µM	> 100	> 100	> 100	> 100	> 100	> 100	–	> 100	–	–	–	–	–	–	–	–	–	–
CC(C)=CC(=O)CC(=O)C(=O)Nc1ccc(Cl)c(Cl)c1	> 100	> 100 µM	> 100	> 100	> 100	> 100	> 100	> 100	> 100	–	–	–	–	–	–	–	–	–	–	–
CC(=O)C1=C([O-])C(C)OC1=O.CC(=O)C1=C([O-])C(C)OC1=O.[NH-]C1CCCC[C@H]1[NH-].[Pt+4] (centres undefined)	–	> 100 µM	> 100	–	> 100	> 100	> 100	> 100	> 100	> 100	–	> 100	–	35.9	> 100000	> 100000	45.6	15800	> 100000	> 100
CCOC(=O)/C(C#N)=C1\N[C@H](C(=O)OCC)CO1	> 100	–	> 100	> 100	> 100	> 100	> 100	> 100	> 100	> 100	–	–	–	–	–	–	–	–	–	–
COc1cnc2c(c1)C(=O)c1c-2n(CCCN2CCCC2)c(=O)c2cc(Cl)ccc12	–	6.01 µM	21.6	9.05	6.8	9.38	10.3	–	–	8.18	–	7.85	25	0.034	170	2110	–	384	27.8	–
COc1ccc2c(C(=O)O)cc3cc(OC)c(OC)cc3c2c1	> 100	–	> 100	> 100	> 100	> 100	> 100	> 100	> 100	–	–	–	–	–	–	–	–	–	–	–
COc1ccc(COCC(Cn2ccnc2)OCc2ccc(C(=O)O)cc2)cc1 (centres undefined)	> 100	> 100 µM	> 100	> 100	> 100	> 100	> 100	> 100	–	> 100	–	–	–	–	–	–	–	–	–	–
N#CC1C(N)=NNC12Nc1ccccc1N2 (centres undefined)	–	–	–	–	69.4	–	> 100	> 100	19.4	74.5	–	–	–	11.7	–	> 100000	34.1	–	18800	3.16
O=c1cccccc1NCCCCCCCCCNc1cccccc1=O	21.3	–	7.35	> 100	44.3	45.7	33.3	17.4	37.5	> 100	–	–	–	–	–	–	–	–	–	–
CC1CC2(CC[C@@H]1O)OCCO2 (some centres undefined)	> 100	> 100 µM	> 100	> 100	> 100	–	> 100	> 100	> 100	> 100	–	–	–	–	–	–	–	–	–	–
Cc1ccc2c(c1)ncn2-c1ncnc2c1CC(C)c1ccccc1N2C (centres undefined)	11.6	17 µM	–	10.5	12.2	15.6	14.6	13	0.409	13.7	89.6	–	46	0.127	209	106	0.0669	56.7	48.6	0.0389
CC(C)(Br)C(=O)/C=C/c1ccccc1	25.6	36.9 µM	28.8	1.63	> 53.6	51.2	43.6	–	25.4	17.3	–	–	–	–	–	–	–	–	–	–
Oc1cc(Cl)ccc1Oc1ccc(Cl)cc1Cl	7.74	14.1 µM	6.48	10.6	–	16.4	12.7	6.43	17.2	17.8	2580	2.28	3360	4.84	4530	3600	2.55	2800	–	5.21
CCC1CN2CCc3cc(OC)c(OC)cc3C2CC1CC1c2cc(OC)c(OC)cc2CCN1C(=O)CNC(=O)OC(C)(C)C (centres undefined)	–	56.2 µM	60	15.2	34.4	70.3	11.4	–	61.7	65.1	–	–	–	–	–	–	–	–	–	–
CN(C)c1ccc(C(N)=O)cn1	> 100	–	> 100	> 100	> 100	> 100	> 100	> 100	> 100	–	–	–	–	–	–	–	–	–	–	–

— PubChem BioAssay (NCI)
